In brackets after ≈: the same amount, converted by molar mass.
Key:
Format in all cases: cell-based
[1] = test system: STAPHYLOCOCCUS AUREUS ATCC 6538P; test: In vitro antibacterial activity, MIC, BHI agar dilution; conditions: S. aureus ATCC 6538P, 35-37° C., 20 to 24 hours, unit assumed
[2] = test system: STAPHYLOCOCCUS AUREUS A5177; test: as above; conditions: S. aureus A5177, unit assumed
[3] = test system: STAPHYLOCOCCUS AUREUS A-5278; test: as above; conditions: S. aureus A-5278, unit assumed
[4] = test system: STAPHYLOCOCCUS AUREUS CMX 642A; test: as above; conditions: S. aureus CMX 642A, unit assumed
[5] = test system: STAPHYLOCOCCUS AUREUS NCTC10649M; test: as above; conditions: S. aureus NCTC10649M, unit assumed
[6] = test system: STAPHYLOCOCCUS AUREUS CMX 553; test: as above; conditions: S. aureus CMX 553, unit assumed
[7] = test system: STAPHYLOCOCCUS AUREUS 1775; test: as above; conditions: S. aureus 1775, unit assumed
[8] = test system: STAPHYLOCOCCUS EPIDERMIDIS 3519; conditions: S. epidermidis 3519; BHI agar; unit assumed
EN[…] ATCC 8043 = test: In vitro antibacterial activity, MIC, BHI agar dilution; conditions: E. faecium ATCC 8043, unit assumed
How it was run: (§1)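 Twelve successive aqueous dilutions of compound in Brain Heart Infusion agar were inoculated with 1:100 culture dilutions (1:10 for slow growers such as Micrococcus, Streptococcus) by Steers replicator and incubated at 35-37° C for 20 to 24 hours. MIC was the lowest concentration giving no growth, slight haze or sparse colonies versus drug-free control.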

M[…] ATCC 4698 = test: as above; conditions: M. luteus ATCC 4698, unit assumed
How it was run: as §1

M[…] ATCC 9341 = test: as above; conditions: M. luteus ATCC 9341, unit assumed
How it was run: as §1

STR[…] 508 = test: as above; conditions: S. agalactiae CMX 508, unit assumed
How it was run: as §1

[9] = test system: STREPTOCOCCUS BOVIS A-5169; test: as above; conditions: S. bovis A-5169, unit assumed
[10] = test system: STREPTOCOCCUS PYOGENES EES61; test: as above; conditions: S. pyogenes EES61, unit assumed
[11] = test system: STREPTOCOCCUS PYOGENES 930; test: as above; conditions: S. pyogenes 930, unit assumed
[12] = test system: STREPTOCOCCUS PYOGENES PIU 2548; test: as above; conditions: S. pyogenes PIU 2548, unit assumed
ESCHERICHIA COLI JUHL = conditions: E. coli JUHL; BHI agar; unit assumed
ESCHERICHIA COLI SS = test: In vitro antibacterial activity, MIC, BHI agar dilution; conditions: E. coli SS, unit assumed
ESCHERICHIA COLI DC-2 = test: as above; conditions: E. coli DC-2, unit assumed
ESCHERICHIA COLI H560 = test: as above; conditions: E. coli H560, unit assumed
ESCHERICHIA COLI KNK 437 = conditions: E. coli KNK 437; BHI agar; unit assumed
[13] = test system: ENTEROBACTER AEROGENES ATCC 13048; test: In vitro antibacterial activity, MIC, BHI agar dilution; conditions: E. aerogenes ATCC 13048, unit assumed
[14] = test system: KLEBSIELLA PNEUMONIAE ATCC 8045; test: as above; conditions: K. pneumoniae ATCC 8045, unit assumed
[15] = test system: PROVIDENCIA STUARTII CMX 640; conditions: P. stuartii CMX 640; BHI agar; unit assumed
[16] = test system: PSEUDOMONAS AERUGINOSA BMH10; test: In vitro antibacterial activity, MIC, BHI agar dilution; conditions: P. aeruginosa BMH10, unit assumed
[17] = test system: PSEUDOMONAS AERUGINOSA 5007; test: as above; conditions: P. aeruginosa 5007, unit assumed
[18] = test system: PSEUDOMONAS AERUGINOSA K799/WT; test: as above; conditions: P. aeruginosa K799/WT, unit assumed
[19] = test system: PSEUDOMONAS AERUGINOSA K799/61; test: as above; conditions: P. aeruginosa K799/61, unit assumed
PSEUDOMONAS CEPACIA 296I = test: as above; conditions: P. cepacia 296I, unit assumed
[20] = test system: PSEUDOMONAS AERUGINOSA DPHD-5263; test: as above; conditions: P. aeruginosa DPHD-5263, unit assumed
[21] = test system: PSEUDOMONAS AERUGINOSA DPHD-2862; test: as above; conditions: P. aeruginosa DPHD-2862, unit assumed
CANDIDA ALBICANS CCH 442 = test: as above; conditions: C. albicans CCH 442, unit assumed
[22] = test system: MYCOBACTERIUM SMEGMATIS ATCC 114; test: as above; conditions: M. smegmatis ATCC 114, unit assumed

Work on `CC[C@H]1OC(=O)[C@H](C)C(=O)[C@H](C)[C@@H](O[C@@H]2O[C@H](C)C[C@H](N(C)C)[C@H]2O)[C@](C)(OC)C[C@@H](C)C2=NC[C@H](COC(=O)c3ccncc3)N3C(=O)O[C@@]1(C)[C@H]3[C@H]2C` [Example 138] yielded an MIC [1] of 0.39 µg/mL (≈ 0.505 µM), an MIC [2] of 0.39 µg/mL (≈ 0.505 µM) and an MIC [3] greater than 100 µg/mL. For the same compound, the MIC [4] was 0.39 µg/mL (≈ 0.505 µM), the MIC [5] was 0.39 µg/mL (≈ 0.505 µM) and the MIC [6] was 0.39 µg/mL (≈ 0.505 µM). It also gave an MIC [7] greater than 100 µg/mL, an MIC [8] of 0.39 µg/mL (≈ 0.505 µM) and an MIC (EN[…] ATCC 8043) of 0.1 µg/mL (≈ 0.129 µM). The MIC (M[…] ATCC 4698) was 0.39 µg/mL (≈ 0.505 µM), the MIC (M[…] ATCC 9341) was 0.02 µg/mL (≈ 0.0259 µM) and the MIC (STR[…] 508) was 0.1 µg/mL (≈ 0.129 µM). It also gave an MIC [9] of 0.01 µg/mL (≈ 0.0129 µM), an MIC [10] of 0.02 µg/mL (≈ 0.0259 µM) and an MIC [11] greater than 100 µg/mL. For the same compound, the MIC [12] was 1.56 µg/mL (≈ 2.02 µM), the MIC (ESCHERICHIA COLI JUHL) was 50 µg/mL (≈ 64.7 µM) and the MIC (ESCHERICHIA COLI SS) was 0.78 µg/mL (≈ 1.01 µM). The MIC (ESCHERICHIA COLI DC-2) was 50 µg/mL (≈ 64.7 µM), the MIC (ESCHERICHIA COLI H560) was 50 µg/mL (≈ 64.7 µM) and the MIC (ESCHERICHIA COLI KNK 437) was 50 µg/mL (≈ 64.7 µM). For the same compound, the MIC [13] was greater than 100 µg/mL, the MIC [14] was greater than 100 µg/mL and the MIC [15] was greater than 100 µg/mL. For the same compound, the MIC [16] was greater than 100 µg/mL, the MIC [17] was greater than 100 µg/mL and the MIC [18] was greater than 100 µg/mL. It also gave an MIC [19] of 0.78 µg/mL (≈ 1.01 µM), an MIC (PSEUDOMONAS CEPACIA 296I) of 100 µg/mL (≈ 129 µM) and an MIC [20] greater than 100 µg/mL. The MIC [21] was greater than 100 µg/mL, the MIC (CANDIDA ALBICANS CCH 442) was greater than 100 µg/mL and the MIC [22] was 3.1 µg/mL (≈ 4.01 µM).

`CC[C@H]1OC(=O)[C@H](C)C(=O)[C@H](C)[C@@H](O[C@@H]2O[C@H](C)C[C@H](N(C)C)[C@H]2O)[C@](C)(OC)C[C@@H](C)C2=NCC(COC(=O)c3ccc([N+](=O)[O-])cc3)N3C(=O)O[C@@]1(C)[C@H]3[C@H]2C` (stereo partly drawn) [Example 140] showed an MIC [1] of 0.1 µg/mL (≈ 0.122 µM), an MIC [2] of 0.1 µg/mL (≈ 0.122 µM) and an MIC [3] greater than 100 µg/mL. The MIC [4] was 0.1 µg/mL (≈ 0.122 µM), the MIC [5] was 0.1 µg/mL (≈ 0.122 µM) and the MIC [6] was 0.1 µg/mL (≈ 0.122 µM). For the same compound, the MIC [7] was greater than 100 µg/mL, the MIC [8] was 0.1 µg/mL (≈ 0.122 µM) and the MIC (EN[…] ATCC 8043) was 0.05 µg/mL (≈ 0.0612 µM). The MIC (M[…] ATCC 4698) was 0.1 µg/mL (≈ 0.122 µM), the MIC (M[…] ATCC 9341) was 0.01 µg/mL (≈ 0.0122 µM) and the MIC (STR[…] 508) was 0.02 µg/mL (≈ 0.0245 µM). The MIC [9] was no more than 0.005 µg/mL, the MIC [10] was no more than 0.005 µg/mL and the MIC [11] was 50 µg/mL (≈ 61.2 µM). It also gave an MIC [12] of 0.2 µg/mL (≈ 0.245 µM), an MIC (ESCHERICHIA COLI JUHL) of 50 µg/mL (≈ 61.2 µM) and an MIC (ESCHERICHIA COLI SS) of 0.78 µg/mL (≈ 0.955 µM). It also gave an MIC (ESCHERICHIA COLI DC-2) of 50 µg/mL (≈ 61.2 µM), an MIC (ESCHERICHIA COLI H560) of 25 µg/mL (≈ 30.6 µM) and an MIC (ESCHERICHIA COLI KNK 437) of 50 µg/mL (≈ 61.2 µM). For the same compound, the MIC [13] was greater than 100 µg/mL, the MIC [14] was greater than 100 µg/mL and the MIC [15] was greater than 100 µg/mL. It also gave an MIC [16] greater than 100 µg/mL, an MIC [17] greater than 100 µg/mL and an MIC [18] greater than 100 µg/mL. It also gave an MIC [19] of 0.39 µg/mL (≈ 0.477 µM), an MIC (PSEUDOMONAS CEPACIA 296I) of 25 µg/mL (≈ 30.6 µM) and an MIC [20] greater than 100 µg/mL. For the same compound, the MIC [21] was greater than 100 µg/mL, the MIC (CANDIDA ALBICANS CCH 442) was greater than 100 µg/mL and the MIC [22] was 0.39 µg/mL (≈ 0.477 µM).

Source: patent US6274715A, “Tricyclic erythromycin derivatives” (priority 1997, dated 2001)
